Measured values taken from US6235891A, “Glucocorticoid receptor agonist and decreased PP5” (South Alabama Medical Science Foundation, priority 1999, dated 2001).

Tested on: glucocorticoid receptor (GR) binding to DNA
Test: Gel mobility shift assay of GR binding to GRE DNA, A549 nuclear extracts
Assay type: cell-based, human
Conditions: 300 nM ISIS 15534 compared with 1 μM dexamethasone
Experimental: Nuclear extracts and gel mobility shift assays were conducted as previously described (Li et al. 1991) with slight modifications (Zuo et al. 1998). Briefly, A549 cells were cultured in 60 mm dishes and treated with ISIS 15521 or ISIS 15534 antisense oligonucleotides (Zuo et al. 1998) three dishes per group. Six hours after treatment, the cells were collected, washed with ice-cold PBS, and incubated in buffer A (10 mM HEPES, pH 7.9, 10 mM KCl, 0.1 mM EDTA, 0.1 mM EGTA, 1 mM DTT, 0.5 mM PMSF) at 4° C. for 15 minutes. The cells were then lysed by adding 25 μl 10% NP-40 and vigorous vortexing for 10 seconds. Nuclei were precipitated by centrifugation, resuspended in ice-cold buffer B (20 mM HEPES, pH 7.9, 0.4 M NaCl, 1 mM EDTA, 1 mM EGTA, 1 mM DTT, 1 mM PMSF), incubated at 4° C. for 60 minutes with gentle shaking, and then subjected to centrifugation at 4° C. for 5 minutes. The supernatant was collected, aliquoted, and stored at -80° C. […]
Referring to FIG. 3A, the inhibition of PP5 expression enhances glucocorticoid receptor binding to DNA. […] The relative light units of the cell extract were calculated as an average of three independent experiments, performed in triplicate, and presented as relative luciferase activity with error bars indicating SD. […]

ISIS 15534: chimeric PP5 antisense oligonucleotide, P=O wings, P=S deoxy gap; GGGCCCTATTGCTTGAGTGG, SEQ ID NO: 12 (sugars by position and backbone not given here; chimeric, phosphodiester wings, phosphorothioate deoxy gap)
GR/GRE gel shift: more pronounced shift
